Results taken from the supplement of paper PMC11208160.

Experiment: recombinant barcode read abundance after kanamycin selection (control-corrected) (log10(CPM+1)); higher = more efficient recombination; sequences stand for … in AGTGCAGAGAAAATCGGCCAGTTTTCTCTGCCTGCAGTCCGCATGCCGT…AGATTTATGCAGCGGACTGCCTTTCTCCCAAAGTGATAAACCGGACAGTATCATGGACCGGTTTTCCCGGTAATCCGTATTTGCAAGGTTGGTTTCACT; site = the 11-nt target
Experimental: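 Pooled E. coli target-specificity screen for the IS621 bridge recombinase. Each library plasmid pairs an 11-nt target (CT core) with a bridge RNA whose target-binding loop (9-nt LTG + 4-nt RTG) is reprogrammed; the rest of the 177-nt WT IS621 bridge RNA scaffold is fixed. The plasmid is co-electroporated with a WT donor plasmid; recombinase is induced with 0.1 mM IPTG and recombinants are selected on kanamycin. Recombinant barcodes are sequenced, converted to CPM, averaged over two biological replicates and corrected by the unselected control CPM. Molecule = full bridge RNA written as DNA: LTG = specificity nt 1-9, RTG = reverse complement of specificity nt 8-11, in the WT scaffold.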
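Note: IS621 recombinase and bridge RNA in Escherichia coli cells.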

Sequence | recombinant barcode read abundance (log10)
AATAGTGCTTGGGTTCTAACCTGTTGCCT (site AATAGTGCTAG) | 0.203
AATAGTGCTTGGGTTCTAACCTGTTGCCT (site ACTAGTGCTAG) | 0.101
AATAGTGCTTGGGTTCTAACCTGTTGCCT (site AGTAGTGCTAG) | 0.176
AATAGTGCTTGGGTTCTAACCTGTTGCCT (site ATTAGTGCTAG) | 0.045
AATCGAACTTGGGTTCTAACCTGTTGCCT (site AATCGAACTAG) | 0.297
AATCGAACTTGGGTTCTAACCTGTTGCCT (site GATCGAACTAG) | 0.15
AATCTAACTTGGGTTCTAACCTGTTGCCT (site AATCTAACTAG) | 0.527
AATCTAACTTGGGTTCTAACCTGTTGCCT (site GGCGCCTCTGC) | 0.538
AATCTGTCTTGGGTTCTAACCTGTTGCGT (site AATCTGTCTAC) | 1.8
AATCTGTCTTGGGTTCTAACCTGTTGCGT (site TAGCTGTCTAC) | 0.149
AATGATTCTTGGGTTCTAACCTGTTGCGT (site AATGATTCTAC) | 2.27
AATGATTCTTGGGTTCTAACCTGTTGCGT (site GGGCCGGCTCG) | 0.433
AATGCATCTTGGGTTCTAACCTGTTGCCT (site AATGAATCTAG) | 0.0891
AATGCATCTTGGGTTCTAACCTGTTGCCT (site AATGCATCTAG) | 0.285
AATGCATCTTGGGTTCTAACCTGTTGCCT (site AATGGATCTAG) | 0.054
AATGCATCTTGGGTTCTAACCTGTTGCCT (site AATGTATCTAG) | 0.0299
AATGCTACTTGGGTTCTAACCTGTTGCCA (site AAAACTACTTG) | 0.127
AATGCTACTTGGGTTCTAACCTGTTGCCA (site AATGCTACTTG) | 0.266
AATGGATCTTGGGTTCTAACCTGTTGCCT (site AATGAATCTAG) | 0.0825
AATGGATCTTGGGTTCTAACCTGTTGCCT (site AATGCATCTAG) | 0.0416

Sequence | recombinant barcode read abundance (log10)
AATGGATCTTGGGTTCTAACCTGTTGCCT (site AATGGATCTAG) | 1.01
AATGGATCTTGGGTTCTAACCTGTTGCCT (site AATGTATCTAG) | 0.0683
AATGGGTCTTGGGTTCTAACCTGTTGCCT (site AATGGGACTAG) | 0.0612
AATGGGTCTTGGGTTCTAACCTGTTGCCT (site AATGGGCCTAG) | 0.132
AATGGGTCTTGGGTTCTAACCTGTTGCCT (site AATGGGGCTAG) | 0.04
AATGGGTCTTGGGTTCTAACCTGTTGCCT (site AATGGGTCTAG) | 1.3
AATTAAGCTTGGGTTCTAACCTGTTGCCT (site AATTAAGCTAG) | 1.28
AATTAAGCTTGGGTTCTAACCTGTTGCCT (site AATTCAGCTAG) | 0.159
AATTAAGCTTGGGTTCTAACCTGTTGCCT (site AATTGAGCTAG) | 0.088
AATTAAGCTTGGGTTCTAACCTGTTGCCT (site AATTTAGCTAG) | 0.223
AATTCACCTTGGGTTCTAACCTGTTGCCT (site AATTCACCTAG) | 0.454
AATTCACCTTGGGTTCTAACCTGTTGCCT (site CATTCACCTAG) | 0.0863
AATTCACCTTGGGTTCTAACCTGTTGCCT (site GATTCACCTAG) | 0.0262
AATTCACCTTGGGTTCTAACCTGTTGCCT (site TATTCACCTAG) | 0.129
AATTCAGCTTGGGTTCTAACCTGTTGCCT (site AATTAAGCTAG) | 0.0713
AATTCAGCTTGGGTTCTAACCTGTTGCCT (site AATTCAGCTAG) | 0.26
AATTCAGCTTGGGTTCTAACCTGTTGCCT (site AATTGAGCTAG) | 0.164
AATTCAGCTTGGGTTCTAACCTGTTGCCT (site AATTTAGCTAG) | 0.0408
AATTCGGCTTGGGTTCTAACCTGTTGCCT (site AATTCGGCTAG) | 0.305
AATTCGGCTTGGGTTCTAACCTGTTGCCT (site ACTGCGGCTAG) | 0.407

Sequence | recombinant barcode read abundance (log10)
AATTGTCCTTGGGTTCTAACCTGTTGCAT (site AATTGTCCTAA) | 0.296
AATTGTCCTTGGGTTCTAACCTGTTGCAT (site AATTGTCCTAC) | 0.102
AATTGTCCTTGGGTTCTAACCTGTTGCAT (site AATTGTCCTAG) | 0.0432
AATTGTCCTTGGGTTCTAACCTGTTGCAT (site AATTGTCCTAT) | 0.249
AATTGTCCTTGGGTTCTAACCTGTTGCCT (site AATTGTCCTAA) | 0.411
AATTGTCCTTGGGTTCTAACCTGTTGCCT (site AATTGTCCTAC) | 0.0374
AATTGTCCTTGGGTTCTAACCTGTTGCCT (site AATTGTCCTAG) | 0.407
AATTGTCCTTGGGTTCTAACCTGTTGCCT (site AATTGTCCTAT) | 0.0177
AATTTGACTTGGGTTCTAACCTGTTGCCT (site AAATTGACTAG) | 0.218
AATTTGACTTGGGTTCTAACCTGTTGCCT (site AACTTGACTAG) | 0.0252
AATTTGACTTGGGTTCTAACCTGTTGCCT (site AAGTTGACTAG) | 0.115
AATTTGACTTGGGTTCTAACCTGTTGCCT (site AATTTGACTAG) | 0.576
ACAAGAGCTTGGGTTCTAACCTGTTGCCT (site ACAAGAGCTAG) | 1.07
ACAAGAGCTTGGGTTCTAACCTGTTGCCT (site ACCAGAGCTAG) | 0.266
ACAAGAGCTTGGGTTCTAACCTGTTGCCT (site ACGAGAGCTAG) | 0.0837
ACAAGAGCTTGGGTTCTAACCTGTTGCCT (site ACTAGAGCTAG) | 0.133
ACAATACCTTGGGTTCTAACCTGTTGCCG (site ACAATACCTCG) | 0.408
ACAATACCTTGGGTTCTAACCTGTTGCCG (site ACAATAGCTAG) | 0.51
ACAATCTCTTGGGTTCTAACCTGTTGCTC (site ACAATCTCTGA) | 1.22
